Test results published in ChEMBL document CHEMBL1201862, “PubChem BioAssay data set” (2004).
Several values for one entry are separate records, joined by “and”; a condition that tells them apart may be missing. Equal entries are not always repeated.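 48-hour exposure; five concentrations; linearly interpolated endpoints. GI50 marks 50% less growth.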 Activity calls are given as the source filed them. No stated cut-off is given here; in the data, active = GI50 up to about 1.1 µM and inactive = higher.

Experiments:
Assay in all cases: growth of human tumour cells (NCI), 48 h
[1] = test system: NCI-H522
[2] = test system: Malme-3M
[3] = test system: DMS-273
[4] = test system: SK-MEL-28
[5] = test system: SF-539
[6] = test system: DMS-114
[7] = test system: A549
[8] = test system: SK-MEL-2
[9] = test system: OVCAR-4
[10] = test system: HOP-62
[11] = test system: RPMI-8226
[12] = test system: HCT-15
[13] = test system: NCI-H226
[14] = test system: ACHN
[15] = test system: OVCAR-5
[16] = test system: SK-MEL-5
[17] = test system: SW-620
[18] = test system: SNB-75
[19] = test system: SN12C
[20] = test system: SF-295
[21] = test system: SNB-19
[22] = test system: OVCAR-8
[23] = test system: M19-MEL
[24] = test system: K562
[25] = test system: 786-0
[26] = test system: KM-20L2
[27] = test system: HT-29
[28] = test system: UACC-257
[29] = test system: A498
[30] = test system: NCI-H23
[31] = test system: SNB-78
[32] = test system: COLO 205
[33] = test system: M14
[34] = test system: RXF 393
[35] = test system: CCRF-CEM
[36] = test system: LXFL 529
[37] = test system: HCT-116
[38] = test system: CAKI-1
[39] = test system: EKVX
[40] = test system: OVCAR-3
[41] = test system: TK-10
[42] = test system: NCI-H460
[43] = test system: UO-31
[44] = test system: SR
[45] = test system: KM12
[46] = test system: XF498
[47] = test system: LOX IMVI
[48] = test system: HL-60
[49] = test system: SF-268
[50] = test system: U-251
[51] = test system: MOLT-4
[52] = test system: UACC-62
[53] = test system: DLD-1
[54] = test system: SK-OV-3
[55] = test system: HCC 2998
[56] = test system: HOP-92
[57] = test system: HOP-18
[58] = test system: IGROV-1

COc1cc(-c2ccc(NC(=O)SCCC(=O)O)cc2OC)ccc1NC(=O)SCCC(=O)O
GI50 [1]: > 100 µM (inactive) | GI50 [2]: > 100 µM (inactive) | GI50 [3]: > 100 µM (inactive) | GI50 [4]: > 100 µM (inactive) | GI50 [5]: > 100 µM (inactive) | GI50 [6]: > 100 µM (inactive) | GI50 [7]: > 100 µM (inactive) | GI50 [8]: > 100 µM (inactive) | GI50 [9]: > 100 µM (inactive) | GI50 [10]: > 100 µM (inactive) | GI50 [11]: > 100 µM (inactive) | GI50 [12]: > 100 µM | GI50 [13]: > 100 µM (inactive) | GI50 [14]: > 100 µM (inactive) | GI50 [15]: > 100 µM (inactive) | GI50 [16]: > 100 µM (inactive) | GI50 [17]: > 100 µM (inactive) | GI50 [18]: 65.3 µM (inactive) | GI50 [19]: > 100 µM (inactive) | GI50 [20]: > 100 µM (inactive) | GI50 [21]: > 100 µM (inactive) | GI50 [22]: > 100 µM (inactive) | GI50 [23]: > 100 µM (inactive) | GI50 [24]: > 100 µM (inactive) | GI50 [25]: > 100 µM (inactive) | GI50 [26]: > 100 µM (inactive) | GI50 [27]: > 100 µM (inactive) | GI50 [28]: > 100 µM (inactive) | GI50 [29]: > 100 µM (inactive) | GI50 [30]: > 100 µM (inactive) | GI50 [31]: > 100 µM (inactive) | GI50 [32]: > 100 µM (inactive) | GI50 [33]: > 100 µM (inactive) | GI50 [34]: > 100 µM (inactive) | GI50 [35]: 98.2 µM (inactive) | GI50 [36]: > 100 µM (inactive) | GI50 [37]: > 100 µM (inactive) | GI50 [38]: > 100 µM (inactive) | GI50 [39]: > 100 µM (inactive) | GI50 [40]: > 100 µM (inactive) | GI50 [41]: > 100 µM (inactive) | GI50 [42]: > 100 µM (inactive) | GI50 [43]: > 100 µM (inactive) | GI50 [44]: > 100 µM (inactive) | GI50 [45]: > 100 µM (inactive) | GI50 [46]: 74.3 µM (inactive) | GI50 [47]: > 100 µM (inactive) | GI50 [48]: 24.9 µM (inactive) | GI50 [49]: > 100 µM (inactive) | GI50 [50]: > 100 µM (inactive) | GI50 [51]: > 100 µM (inactive)

CC1(O)CC2C(CC1SCc1ccccc1)C2(C)C (stereo unspecified)
GI50 [1]: 13.7 µM (inactive) and 11.9 µM (inactive) | GI50 [2]: 22 µM (inactive) and 16.3 µM (inactive) | GI50 [3]: 14.2 µM (inactive) and 17.9 µM (inactive) | GI50 [4]: 21 µM (inactive) and 29.3 µM (inactive) | GI50 [5]: 28.8 µM (inactive) and 19.3 µM (inactive) | GI50 [6]: 14.5 µM (inactive) | GI50 [8]: 17.3 µM (inactive) and 11.4 µM (inactive) | GI50 [10]: 24.9 µM (inactive) and 16.6 µM (inactive) | GI50 [11]: 11.9 µM (inactive) and 19.8 µM (inactive) | GI50 [12]: 16.9 µM and 22.3 µM | GI50 [13]: 21.5 µM (inactive) and 16 µM (inactive) | GI50 [14]: 16.8 µM (inactive) and 18.2 µM (inactive) | GI50 [15]: 17.9 µM (inactive) and 17.1 µM (inactive) | GI50 [16]: 23.6 µM (inactive) and 13.1 µM (inactive) | GI50 [17]: 17.5 µM (inactive) and 21.7 µM (inactive) | GI50 [19]: 16.1 µM (inactive) and 23.2 µM (inactive) | GI50 [20]: 28.2 µM (inactive) | GI50 [22]: 16.5 µM (inactive) and 29.4 µM (inactive) | GI50 [52]: 32.4 µM (inactive) and 19.3 µM (inactive) | GI50 [25]: 15.8 µM (inactive) and 21.7 µM (inactive) | GI50 [26]: 20.6 µM (inactive) and 26.6 µM (inactive) | GI50 [27]: 16.4 µM (inactive) and 23.1 µM (inactive) | GI50 [29]: 18.3 µM (inactive) and 28.1 µM (inactive) | GI50 [30]: 23.3 µM (inactive) and 14.2 µM (inactive) | GI50 [32]: 20 µM (inactive) and 16.9 µM (inactive) | GI50 [33]: 30.1 µM (inactive) and 15.5 µM (inactive) | GI50 [34]: 15.3 µM (inactive) and 18.5 µM (inactive) | GI50 [37]: 16.6 µM (inactive) and 21.2 µM (inactive) | GI50 [38]: 15.8 µM (inactive) and 12.5 µM (inactive) | GI50 [39]: 16.7 µM (inactive) and 29.7 µM (inactive) | GI50 [40]: 12.3 µM (inactive) and 16.9 µM (inactive) | GI50 [42]: 14.6 µM (inactive) and 22.9 µM (inactive) | GI50 [45]: 19.3 µM (inactive) and 25.3 µM (inactive) | GI50 [46]: 20.5 µM (inactive) and 15.2 µM (inactive) | GI50 [47]: 17.1 µM (inactive) and 15.5 µM (inactive) | GI50 [49]: 25.9 µM (inactive) and 18.7 µM (inactive) | GI50 [50]: 16 µM (inactive) and 21.2 µM (inactive)

CC1(O)CCC2(C)C(=O)C1(C)CCC21OCCO1 (stereo unspecified)
GI50 [1]: > 100 µM (inactive) | GI50 [2]: > 100 µM (inactive) | GI50 [3]: > 100 µM (inactive) | GI50 [4]: > 100 µM (inactive) | GI50 [5]: > 100 µM (inactive) | GI50 [6]: > 100 µM (inactive) | GI50 [7]: > 100 µM (inactive) | GI50 [8]: > 100 µM (inactive) | GI50 [11]: > 100 µM (inactive) | GI50 [12]: > 100 µM | GI50 [13]: > 100 µM (inactive) | GI50 [14]: > 100 µM (inactive) | GI50 [15]: > 100 µM (inactive) | GI50 [16]: > 100 µM (inactive) | GI50 [17]: > 100 µM (inactive) | GI50 [19]: > 100 µM (inactive) | GI50 [20]: > 100 µM (inactive) | GI50 [21]: > 100 µM (inactive) | GI50 [22]: > 100 µM (inactive) | GI50 [23]: > 100 µM (inactive) | GI50 [24]: > 100 µM (inactive) | GI50 [25]: > 100 µM (inactive) | GI50 [27]: > 100 µM (inactive) | GI50 [28]: > 100 µM (inactive) | GI50 [53]: > 100 µM (inactive) | GI50 [30]: > 100 µM (inactive) | GI50 [32]: > 100 µM (inactive) | GI50 [33]: > 100 µM (inactive) | GI50 [34]: > 100 µM (inactive) | GI50 [35]: > 100 µM (inactive) | GI50 [36]: > 100 µM (inactive) | GI50 [54]: > 100 µM (inactive) | GI50 [39]: > 100 µM (inactive) | GI50 [40]: > 100 µM (inactive) | GI50 [55]: > 100 µM (inactive) | GI50 [41]: > 100 µM (inactive) | GI50 [42]: > 100 µM (inactive) | GI50 [43]: > 100 µM (inactive) | GI50 [44]: > 100 µM (inactive) | GI50 [56]: > 100 µM (inactive) | GI50 [57]: > 100 µM (inactive) | GI50 [45]: > 100 µM (inactive) | GI50 [46]: > 100 µM (inactive) | GI50 [48]: > 100 µM (inactive) | GI50 [49]: > 100 µM (inactive) | GI50 [58]: > 100 µM (inactive) | GI50 [50]: > 100 µM (inactive) | GI50 [51]: > 100 µM (inactive)
